Patent EP2140864A2 (H. Lundbeck A/S, priority 2001, dated 2002)

target: T1, human 5HT4 receptor (Homo sapiens, UniProt Q13639); test: Radioligand binding, 5-HT4 receptor; conditions: Table 8; Ki h5HT4 divided by Ki hGAL3
T1 construct: expressed in transfected cells
Method: (§1) Other 5-HT Receptors: Other serotonin receptor binding assays were performed according to published methods: rat 5HT2C receptor (Julius et al., 1988); and 5-HT6 (Monsma, et al., 1993). The binding assays using the 5-HT4 receptor were performed according to the procedures described in U.S. Patent No. 5,766,879, the disclosure of which is hereby incorporated by reference in its entirety into this application.
(§2) Binding data were analyzed using nonlinear regression and statistical techniques available in the GraphPAD Prism package (San Diego, CA). Enzymatic assay data were derived from a standard curve of reference compound data.

T1 sequence (Q13639 whole entry): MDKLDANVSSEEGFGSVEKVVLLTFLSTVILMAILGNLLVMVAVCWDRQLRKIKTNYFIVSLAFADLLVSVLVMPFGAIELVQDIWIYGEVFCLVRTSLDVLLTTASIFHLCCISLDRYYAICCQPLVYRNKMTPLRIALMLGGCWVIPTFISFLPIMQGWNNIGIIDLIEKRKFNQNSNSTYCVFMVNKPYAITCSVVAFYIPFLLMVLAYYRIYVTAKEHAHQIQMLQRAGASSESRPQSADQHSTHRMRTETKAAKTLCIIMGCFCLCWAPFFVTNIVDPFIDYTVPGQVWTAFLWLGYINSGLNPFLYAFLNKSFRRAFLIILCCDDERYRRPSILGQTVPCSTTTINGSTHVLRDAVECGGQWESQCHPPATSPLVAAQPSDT

| SMILES | selectivity ratio h5HT4 |
| --- | --- |
| O=C1C(=Nc2cccc(C(F)(F)F)c2)c2ccccc2N1c1ccccc1 [Example 92, 1-PHENYL-3- [[3-(TRIFLUOROMETHYL)PHENYL]IMINO]-1,3-DIHYDRO-2H-INDOL-2-ONE] | 2 |

target: T2, dopamine D5 receptor (Homo sapiens, UniProt P21918); test: Radioligand binding, dopamine D5 receptor; conditions: Table 10; Ki hD5 divided by Ki hGAL3
T2 construct: expressed in transfected cells
From the text: (§3) Other receptors: Cell membranes expressing human dopamine D1, D2, D4 and rat D3 receptors were purchased through BioSignal, Inc. (Montreal, Canada). Binding assays using the histamine H1 receptor; dopamine receptors; and α1A, α1E, and α2 adrenergic receptors may be carried out according to the procedures described in U.S. Patent No. 5,780,485, the disclosure of which is hereby incorporated by reference in its entirety into this application. Binding assays using the dopamine D5 receptor may be carried out according to the procedures described in U.S. Patent No. 5,882,855, the disclosure of which is hereby incorporated by reference in its entirety into this application. Binding assays for the human α1D adrenergic receptor may be carried out according to the procedures described in U.S. Patent No. 6,156,518, the disclosure of which is hereby incorporated by reference in its entirety into this application.
as §2

T2 sequence (P21918 whole entry): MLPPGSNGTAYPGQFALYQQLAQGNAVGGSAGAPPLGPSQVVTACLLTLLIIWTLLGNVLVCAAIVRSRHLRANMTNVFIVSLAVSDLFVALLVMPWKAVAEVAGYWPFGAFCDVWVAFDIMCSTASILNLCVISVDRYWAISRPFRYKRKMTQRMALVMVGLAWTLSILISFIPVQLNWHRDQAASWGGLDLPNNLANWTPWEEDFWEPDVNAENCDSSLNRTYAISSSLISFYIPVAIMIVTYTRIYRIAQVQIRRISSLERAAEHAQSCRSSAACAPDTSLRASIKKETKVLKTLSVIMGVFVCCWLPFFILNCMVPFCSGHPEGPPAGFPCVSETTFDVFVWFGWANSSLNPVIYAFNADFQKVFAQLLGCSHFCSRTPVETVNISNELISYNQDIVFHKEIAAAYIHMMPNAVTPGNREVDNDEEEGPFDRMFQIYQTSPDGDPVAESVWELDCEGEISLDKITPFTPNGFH

| SMILES | selectivity ratio hD5 |
| --- | --- |
| O=C1C(=Nc2cccc(C(F)(F)F)c2)c2ccccc2N1c1ccccc1 [Example 92, 1-PHENYL-3- [[3-(TRIFLUOROMETHYL)PHENYL]IMINO]-1,3-DIHYDRO-2H-INDOL-2-ONE] | >100 |

target: T3, human α1B adrenoceptor (Homo sapiens, UniProt P35368); test: Radioligand binding, α1B adrenergic receptor; conditions: Table 10; Ki hα1B divided by Ki hGAL3
T3 construct: expressed in transfected cells
T3 sequence (P35368 1-520): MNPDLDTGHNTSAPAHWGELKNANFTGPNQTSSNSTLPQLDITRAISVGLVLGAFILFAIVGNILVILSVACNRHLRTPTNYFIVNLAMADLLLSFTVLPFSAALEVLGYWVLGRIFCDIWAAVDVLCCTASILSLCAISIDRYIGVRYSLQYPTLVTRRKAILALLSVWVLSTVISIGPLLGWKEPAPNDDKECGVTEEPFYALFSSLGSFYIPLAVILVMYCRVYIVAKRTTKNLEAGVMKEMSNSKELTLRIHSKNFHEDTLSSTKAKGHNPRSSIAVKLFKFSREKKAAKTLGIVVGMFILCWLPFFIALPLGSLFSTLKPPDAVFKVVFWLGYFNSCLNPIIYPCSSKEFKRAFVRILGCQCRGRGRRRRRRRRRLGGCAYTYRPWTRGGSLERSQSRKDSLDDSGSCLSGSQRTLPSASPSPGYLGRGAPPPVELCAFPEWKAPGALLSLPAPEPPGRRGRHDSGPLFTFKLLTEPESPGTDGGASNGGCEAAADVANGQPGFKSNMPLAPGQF

| SMILES | selectivity ratio hα1B |
| --- | --- |
| O=C1C(=Nc2cccc(C(F)(F)F)c2)c2ccccc2N1c1ccccc1 [Example 92, 1-PHENYL-3- [[3-(TRIFLUOROMETHYL)PHENYL]IMINO]-1,3-DIHYDRO-2H-INDOL-2-ONE] | >100 |

target: T4, human 5HT1D (Homo sapiens, UniProt P28221); test: Radioligand binding, 5HT1D receptor ([3H]-serotonin); conditions: Table 8; Ki h5HT1D divided by Ki hGAL3
T4 construct: expressed in transfected cells
Method: (§4) Human 5HT1B, 5HT1D, 5HT1E, 5HT1F, and 5HT7 Receptors: The cell lysates of LM(tk-) clonal cell line stably transfected with the genes encoding each of these 5HT receptor-subtypes were prepared as described above. Cell membranes were suspended in 50mM Tris-HCl buffer (pH 7.4 at 37°C) containing 10 mM MgCl2, 0.2 mM EDTA, 10 µM pargyline, and 0.1% ascorbate. […] Nonspecific binding was determined in the presence of 10 µM serotonin. The bound radioligand was separated by filtration through GF/B filters using a cell harvester.
as §2

T4 sequence (P28221 whole entry): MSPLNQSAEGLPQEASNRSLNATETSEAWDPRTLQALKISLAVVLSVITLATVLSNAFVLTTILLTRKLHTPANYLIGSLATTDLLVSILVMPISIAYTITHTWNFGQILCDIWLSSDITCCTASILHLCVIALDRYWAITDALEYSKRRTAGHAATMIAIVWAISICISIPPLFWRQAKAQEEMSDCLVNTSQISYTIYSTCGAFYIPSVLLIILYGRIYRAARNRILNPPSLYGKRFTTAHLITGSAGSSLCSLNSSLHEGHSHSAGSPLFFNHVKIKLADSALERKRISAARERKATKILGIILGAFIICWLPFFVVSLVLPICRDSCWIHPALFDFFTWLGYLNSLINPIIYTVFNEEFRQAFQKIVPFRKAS

| SMILES | selectivity ratio h5HT1D |
| --- | --- |
| O=C1C(=Nc2cccc(C(F)(F)F)c2)c2ccccc2N1c1ccccc1 [Example 92, 1-PHENYL-3- [[3-(TRIFLUOROMETHYL)PHENYL]IMINO]-1,3-DIHYDRO-2H-INDOL-2-ONE] | >100 |

target: T5, human 5HT1E (Homo sapiens, UniProt P28566); test: Radioligand binding, 5HT1E receptor ([3H]-serotonin); conditions: Table 8; Ki h5HT1E divided by Ki hGAL3
T5 construct: expressed in transfected cells
Method: as §4, §2

T5 sequence (P28566 whole entry): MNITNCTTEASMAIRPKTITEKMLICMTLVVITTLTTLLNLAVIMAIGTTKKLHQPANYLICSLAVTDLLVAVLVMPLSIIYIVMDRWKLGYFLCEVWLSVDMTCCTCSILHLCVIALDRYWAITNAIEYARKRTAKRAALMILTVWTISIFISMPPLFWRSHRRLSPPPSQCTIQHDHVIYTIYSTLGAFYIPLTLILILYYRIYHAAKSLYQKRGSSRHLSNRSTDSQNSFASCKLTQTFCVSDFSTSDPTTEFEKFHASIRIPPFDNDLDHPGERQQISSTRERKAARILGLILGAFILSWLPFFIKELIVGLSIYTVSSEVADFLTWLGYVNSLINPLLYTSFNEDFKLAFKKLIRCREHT

| SMILES | selectivity ratio h5HT1E |
| --- | --- |
| O=C1C(=Nc2cccc(C(F)(F)F)c2)c2ccccc2N1c1ccccc1 [Example 92, 1-PHENYL-3- [[3-(TRIFLUOROMETHYL)PHENYL]IMINO]-1,3-DIHYDRO-2H-INDOL-2-ONE] | >100 |

target: T6, human α2B adrenoceptor (Homo sapiens, UniProt P18089); test: Radioligand binding, α2B adrenergic receptor; conditions: Table 10; Ki hα2B divided by Ki hGAL3
T6 construct: expressed in transfected cells
T6 sequence (P18089 1-450): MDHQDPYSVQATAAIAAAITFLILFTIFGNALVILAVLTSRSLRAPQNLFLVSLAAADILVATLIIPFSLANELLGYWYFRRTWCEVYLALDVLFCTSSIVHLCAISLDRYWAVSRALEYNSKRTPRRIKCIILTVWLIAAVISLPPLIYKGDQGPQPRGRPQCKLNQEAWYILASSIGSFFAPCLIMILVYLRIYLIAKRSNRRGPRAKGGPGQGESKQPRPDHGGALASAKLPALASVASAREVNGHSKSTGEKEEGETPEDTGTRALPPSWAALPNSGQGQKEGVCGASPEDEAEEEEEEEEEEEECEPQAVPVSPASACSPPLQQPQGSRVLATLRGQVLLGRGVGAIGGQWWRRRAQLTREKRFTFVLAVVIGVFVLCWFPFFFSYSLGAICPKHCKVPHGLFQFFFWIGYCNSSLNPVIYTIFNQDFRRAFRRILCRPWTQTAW
From the text: as §3, §2

| SMILES | selectivity ratio hα2B |
| --- | --- |
| O=C1C(=Nc2cccc(C(F)(F)F)c2)c2ccccc2N1c1ccccc1 [Example 92, 1-PHENYL-3- [[3-(TRIFLUOROMETHYL)PHENYL]IMINO]-1,3-DIHYDRO-2H-INDOL-2-ONE] | >100 |

target: T7, human 5HT6 (Homo sapiens, UniProt P50406); test: Radioligand binding, 5-HT6 receptor; conditions: Table 8; Ki h5HT6 divided by Ki hGAL3
T7 construct: expressed in transfected cells
Method: as §1, §2

T7 sequence (P50406 whole entry): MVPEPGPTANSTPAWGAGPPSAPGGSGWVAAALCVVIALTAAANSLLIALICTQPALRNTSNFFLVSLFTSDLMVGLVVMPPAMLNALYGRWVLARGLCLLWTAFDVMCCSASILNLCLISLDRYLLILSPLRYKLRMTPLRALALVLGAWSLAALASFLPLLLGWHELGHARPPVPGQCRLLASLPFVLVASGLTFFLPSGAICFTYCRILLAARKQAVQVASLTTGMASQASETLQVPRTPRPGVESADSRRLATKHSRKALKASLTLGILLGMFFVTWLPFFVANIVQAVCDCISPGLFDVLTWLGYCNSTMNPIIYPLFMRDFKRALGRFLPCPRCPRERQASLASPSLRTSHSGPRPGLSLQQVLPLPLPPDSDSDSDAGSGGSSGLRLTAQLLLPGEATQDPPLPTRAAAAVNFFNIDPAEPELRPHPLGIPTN

| SMILES | selectivity ratio h5HT6 |
| --- | --- |
| O=C1C(=Nc2cccc(C(F)(F)F)c2)c2ccccc2N1c1ccccc1 [Example 92, 1-PHENYL-3- [[3-(TRIFLUOROMETHYL)PHENYL]IMINO]-1,3-DIHYDRO-2H-INDOL-2-ONE] | >100 |

target: DA transporter (Rattus norvegicus, UniProt P23977); test: Binding at native DA transporter; conditions: Table 8; Ki rDA Uptk divided by Ki hGAL3
Method: (§5) The binding properties of the compounds of the present invention were evaluated at one or more cloned receptors or native, tissue-derived transporters, using protocols described below.
(§6) The methods to determine binding affinity at native transporters are described in the following publications: 5HT transporter and NE transporter (Owens et al., 1997), and DA transporter (Javitch et al, 1984).
as §2

Sequence of DA transporter (P23977 whole entry): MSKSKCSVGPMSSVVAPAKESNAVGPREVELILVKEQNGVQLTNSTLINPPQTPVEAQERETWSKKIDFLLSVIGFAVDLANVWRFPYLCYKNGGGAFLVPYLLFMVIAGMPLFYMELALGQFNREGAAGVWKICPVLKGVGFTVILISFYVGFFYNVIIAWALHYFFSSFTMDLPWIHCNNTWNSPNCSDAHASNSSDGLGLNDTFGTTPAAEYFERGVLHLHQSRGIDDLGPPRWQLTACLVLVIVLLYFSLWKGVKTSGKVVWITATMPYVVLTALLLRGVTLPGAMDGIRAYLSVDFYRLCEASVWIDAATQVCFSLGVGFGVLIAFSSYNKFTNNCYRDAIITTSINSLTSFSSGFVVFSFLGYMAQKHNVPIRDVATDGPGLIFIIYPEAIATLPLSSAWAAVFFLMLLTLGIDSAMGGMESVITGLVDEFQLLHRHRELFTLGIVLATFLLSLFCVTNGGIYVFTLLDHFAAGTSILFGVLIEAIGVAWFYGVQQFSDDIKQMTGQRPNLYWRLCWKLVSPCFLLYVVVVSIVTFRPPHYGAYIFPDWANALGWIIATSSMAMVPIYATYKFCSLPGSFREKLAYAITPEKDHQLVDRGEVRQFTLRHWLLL

| SMILES | selectivity ratio rDA Uptk |
| --- | --- |
| O=C1C(=Nc2cccc(C(F)(F)F)c2)c2ccccc2N1c1ccccc1 [Example 92, 1-PHENYL-3- [[3-(TRIFLUOROMETHYL)PHENYL]IMINO]-1,3-DIHYDRO-2H-INDOL-2-ONE] | >100 |

target: T8, human dopamine D1 (Homo sapiens, UniProt P21728); test: Radioligand binding, dopamine D1 receptor; conditions: Table 10; Ki hD1 divided by Ki hGAL3
T8 construct: purchased BioSignal, Inc. (Montreal, Canada); host or cells: membranes of cells expressing the receptor
From the text: as §3, §2

T8 sequence (P21728 whole entry): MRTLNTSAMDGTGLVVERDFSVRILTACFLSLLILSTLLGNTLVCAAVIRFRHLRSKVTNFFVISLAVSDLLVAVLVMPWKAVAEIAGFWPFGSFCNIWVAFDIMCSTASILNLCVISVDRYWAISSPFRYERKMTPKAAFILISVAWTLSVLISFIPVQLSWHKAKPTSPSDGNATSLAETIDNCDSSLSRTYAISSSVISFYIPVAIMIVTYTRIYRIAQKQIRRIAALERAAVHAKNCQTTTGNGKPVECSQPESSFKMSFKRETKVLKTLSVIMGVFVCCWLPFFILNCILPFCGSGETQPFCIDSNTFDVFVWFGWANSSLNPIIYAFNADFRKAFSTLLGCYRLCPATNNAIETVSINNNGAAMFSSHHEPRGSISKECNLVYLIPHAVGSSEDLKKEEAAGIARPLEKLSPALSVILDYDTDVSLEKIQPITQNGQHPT

| SMILES | selectivity ratio hD1 |
| --- | --- |
| O=C1C(=Nc2cccc(C(F)(F)F)c2)c2ccccc2N1c1ccccc1 [Example 92, 1-PHENYL-3- [[3-(TRIFLUOROMETHYL)PHENYL]IMINO]-1,3-DIHYDRO-2H-INDOL-2-ONE] | >100 |

target: 5HT transporter (Rattus norvegicus, UniProt P31652); test: Binding at native 5HT transporter; conditions: Table 8; Ki r5HT Uptk divided by Ki hGAL3
Method: as §5, §6, §2

Sequence of 5HT transporter (P31652 whole entry): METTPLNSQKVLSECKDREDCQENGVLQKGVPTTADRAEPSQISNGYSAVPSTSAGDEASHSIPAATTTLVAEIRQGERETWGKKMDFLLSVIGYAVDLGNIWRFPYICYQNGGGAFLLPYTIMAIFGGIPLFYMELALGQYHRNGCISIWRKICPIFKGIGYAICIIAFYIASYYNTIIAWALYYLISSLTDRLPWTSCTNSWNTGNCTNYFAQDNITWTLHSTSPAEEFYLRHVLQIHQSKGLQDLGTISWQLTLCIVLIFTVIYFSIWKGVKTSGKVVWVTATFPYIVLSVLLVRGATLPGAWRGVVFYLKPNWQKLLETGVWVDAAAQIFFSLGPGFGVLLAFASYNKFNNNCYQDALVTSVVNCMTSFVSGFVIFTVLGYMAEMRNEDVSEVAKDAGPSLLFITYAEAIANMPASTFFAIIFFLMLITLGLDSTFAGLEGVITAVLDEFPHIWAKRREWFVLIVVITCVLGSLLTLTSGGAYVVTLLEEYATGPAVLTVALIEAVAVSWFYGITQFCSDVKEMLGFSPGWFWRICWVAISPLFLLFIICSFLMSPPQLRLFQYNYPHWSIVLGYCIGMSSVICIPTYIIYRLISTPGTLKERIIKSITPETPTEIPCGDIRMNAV

| SMILES | selectivity ratio r5HT Uptk |
| --- | --- |
| O=C1C(=Nc2cccc(C(F)(F)F)c2)c2ccccc2N1c1ccccc1 [Example 92, 1-PHENYL-3- [[3-(TRIFLUOROMETHYL)PHENYL]IMINO]-1,3-DIHYDRO-2H-INDOL-2-ONE] | >100 |
